This is an account of results in patent publication US11464770B2, “Anticancer pharmaceutical composition” (NATIONAL CANCER CENTER, priority 2016, dated 2022).

Like-named read-outs stand apart in the source and are kept apart here. A value given as a limit tells only on which side of the number the result lay.

This assay relates to breast cancer cell lines (e.g. MDA-MB-231, SK-BR-3, MDA-MB-468, HCC1954). Kind of assay: Cell based assay, cell viability (CellTiter-Glo), breast cancer cell lines. Here is the method: Commercially available bladder cancer, prostate cancer, lung cancer, breast cancer, blood cancer, pancreatic cancer, colorectal cancer, brain cancer, neuroblastoma, melanoma, liver cancer, cervical carcinoma, ovarian cancer, renal cancer, and papilloma cell lines were each treated with trypsin-EDTA and cultured, followed by being seeded in each well of a 96 well plate. After 24 hours of treatment at constant temperature, the respective cells were treated with the candidate compound so that a final concentration became 0 to 2 μM. The treated cells were additionally cultured for 72 hours, and cell viability was measured by using an ATP detection method (CellTiter-Glo® Luminescent Cell Viability Assay, Promega).

[1] abbreviates: Breast cancer cell line MDA-MB-231-L/DOX, 72 hours, CellTiter-Glo, read-out: IC50, MDA-MB-231-L/DOX.
Where [2] appears, read: Homo sapiens, Breast cancer cell line BT-20, 72 hours, CellTiter-Glo, read-out: IC50, BT-20.
Where [3] appears, read: Homo sapiens, Breast cancer cell line HCC1395, 72 hours, CellTiter-Glo, read-out: IC50, HCC1395.
Where [4] appears, read: Homo sapiens, Breast cancer cell line HCC1954, 72 hours, CellTiter-Glo, read-out: IC50, HCC1954.
Setting [5] is: Homo sapiens, Breast cancer cell line JIMT-1, 72 hours, CellTiter-Glo, read-out: IC50, JIMT-1.
Where [6] appears, read: Homo sapiens, Breast cancer cell line MCF7, 72 hours, CellTiter-Glo, read-out: IC50, MCF7.
[7] abbreviates: Homo sapiens, Breast cancer cell line MDA-MB-231, 72 hours, CellTiter-Glo, read-out: IC50, MDA-MB-231.
[8] abbreviates: Homo sapiens, Breast cancer cell line MDA-MB-468, 72 hours, CellTiter-Glo, read-out: IC50, MDA-MB-468.
Where [9] appears, read: Homo sapiens, Breast cancer cell line SK-BR-3, 72 hours, CellTiter-Glo, read-out: IC50, SK-BR-3.
The mark [10] stands for this setting: Homo sapiens, BT-20 cells, 72 hours treatment, CellTiter-Glo cell viability, read-out: IC50, Breast cancer cell line BT-20.
Where [11] appears, read: Homo sapiens, HCC1395 cells, 72 hours treatment, CellTiter-Glo cell viability, read-out: IC50, Breast cancer cell line HCC1395.
Where [12] appears, read: Homo sapiens, HCC1954 cells, 72 hours treatment, CellTiter-Glo cell viability, read-out: IC50, Breast cancer cell line HCC1954.
The mark [13] stands for this setting: Homo sapiens, JIMT-1 cells, 72 hours treatment, CellTiter-Glo cell viability, read-out: IC50, Breast cancer cell line JIMT-1.
Where [14] appears, read: Homo sapiens, MCF7 cells, 72 hours treatment, CellTiter-Glo cell viability, read-out: IC50, Breast cancer cell line MCF7.
Where [15] appears, read: Homo sapiens, MDA-MB-231 cells, 72 hours treatment, CellTiter-Glo cell viability, read-out: IC50, Breast cancer cell line MDA-MB-231.
The mark [16] stands for this setting: Homo sapiens, MDA-MB-468 cells, 72 hours treatment, CellTiter-Glo cell viability, read-out: IC50, Breast cancer cell line MDA-MB-468.
Setting [17] is: Homo sapiens, SK-BR-3 cells, 72 hours treatment, CellTiter-Glo cell viability, read-out: IC50, Breast cancer cell line SK-BR-3.
Where [18] appears, read: MDA-MB-231-L/DOX cells, 72 hours treatment, CellTiter-Glo cell viability, read-out: IC50, Breast cancer cell line MDA-MB-231-L/DOX.

Take `CC(=O)c1c([S+](C)[O-])n(Cc2ccc(F)c(Cl)c2)c2c(Br)ccc(Cl)c2c1=O` (stereo not drawn) [Compound 22, 3-acetyl-8-bromo-5-chloro-1-(3-chloro-4-fluorobenzyl)-2-(methylsulfinyl)quinolin-4(1H)-one]: the IC50 by setting is: under setting [1], above 2000 nM; under setting [2], above 2000 nM; under setting [3], above 10000 nM; under setting [4], above 2000 nM; under setting [5], above 10000 nM; under setting [6], above 2000 nM. For the same compound, the IC50 is above 2000 nM under setting [7], above 2000 nM under setting [8] and above 2000 nM under setting [9].

Regarding `CC(=O)c1c([S+]([O-])c2ccccc2)[nH]c2c(Br)ccc(Cl)c2c1=O` (stereo not drawn) [Compound 13, 3-acetyl-8-bromo-5-chloro-2-(phenylsulfinyl)quinolin-4(1H)-one], the IC50 is above 2000 nM under setting [1]; above 2000 nM under setting [2]; above 10000 nM under setting [3]; above 2000 nM under setting [4]; above 10000 nM under setting [5]; above 2000 nM under setting [6]. The IC50 reads like this: under setting [7], above 2000 nM; under setting [8], above 2000 nM; under setting [9], above 2000 nM.

As for `CC(=O)c1c([S+]([O-])Cc2nonc2C)[nH]c2c(Br)ccc(Cl)c2c1=O` (stereo not drawn) [Compound 106, 3-acetyl-8-bromo-5-chloro-2-(((4-methyl-1,2,5-oxadiazol-3-yl)methyl)sulfinyl)quinolin-4(1H)-one], the IC50 under setting [10] was above 2000 nM; the IC50 under setting [11] is above 10000 nM; the IC50 under setting [12] is above 2000 nM; the IC50 under setting [13] was above 10000 nM; the IC50 under setting [14] was above 2000 nM; the IC50 under setting [15] was above 2000 nM. Also, the IC50 by setting is: under setting [16], above 2000 nM; under setting [17], above 2000 nM; under setting [18], above 2000 nM.

As to `CC(=O)c1c([S+]([O-])Cc2ccc(S(F)(F)(F)(F)F)cc2F)[nH]c2c(Br)ccc(Cl)c2c1=O` (stereo not drawn) [Compound 69, 3-acetyl-8-bromo-5-chloro-2-((2-fluoro-4-(pentafluoro-16-sulfanyl)benzyl)sulfinyl)quinolin-4(1H)-one], the IC50 under setting [1] is above 2000 nM; the IC50 under setting [2] was above 2000 nM; the IC50 under setting [3] is above 10000 nM; the IC50 under setting [4] is above 2000 nM; the IC50 under setting [5] was above 10000 nM; the IC50 under setting [6] is above 2000 nM. In addition, the IC50 runs as follows: under setting [7], 1370 nM; under setting [8], above 2000 nM; under setting [9], 1450 nM.

Consider `CC(=O)c1c(SCc2cccc(I)c2)[nH]c2c(Br)ccc(Cl)c2c1=O` [Compound 47, 3-acetyl-8-bromo-5-chloro-2-((3-iodobenzyl)thio)quinolin-4(1H)-one], for which the IC50 is above 2000 nM under setting [1]; above 2000 nM under setting [2]; above 10000 nM under setting [3]; above 2000 nM under setting [4]; above 10000 nM under setting [5]; above 2000 nM under setting [6]. In addition, the IC50 is above 2000 nM under setting [7], above 2000 nM under setting [8] and above 2000 nM under setting [9].

As for `CC(=O)c1c(SCc2cccc(F)c2)[nH]c2c(Br)ccc(Cl)c2c1=O` [Compound 49, 3-acetyl-8-bromo-5-chloro-2-((3-fluorobenzyl)thio)quinolin-4(1H)-one], the IC50 under setting [1] was above 2000 nM; the IC50 under setting [2] is above 2000 nM; the IC50 under setting [3] was above 10000 nM; the IC50 under setting [4] is above 2000 nM; the IC50 under setting [5] was above 10000 nM; the IC50 under setting [6] was above 2000 nM. Moreover, the IC50 was above 2000 nM under setting [7], above 2000 nM under setting [8] and above 2000 nM under setting [9].

In the case of `CC(=O)c1c(Sc2ccccc2)[nH]c2c(Br)ccc(Cl)c2c1=O` [Compound 12, 3-acetyl-8-bromo-5-chloro-2-(phenylthio)quinolin-4(1H)-one], the IC50 reads like this: under setting [1], above 2000 nM; under setting [2], above 2000 nM; under setting [3], above 10000 nM; under setting [4], above 2000 nM; under setting [5], above 10000 nM; under setting [6], above 2000 nM. Further, the IC50 was above 2000 nM under setting [7], above 2000 nM under setting [8] and above 2000 nM under setting [9].

For `Cc1cc(C[S+]([O-])c2[nH]c3c(Br)ccc(Cl)c3c(=O)c2C(=O)C2CC2)no1` (stereo not drawn) [Compound 96, 8-bromo-5-chloro-3-(cyclopropanecarbonyl)-2-(((5-methylisoxazol-3-yl)methyl)sulfinyl)quinolin-4(1H)-one], the IC50 runs as follows: under setting [10], above 2000 nM; under setting [11], above 10000 nM; under setting [12], 1040 nM; under setting [13], above 10000 nM; under setting [14], above 2000 nM; under setting [15], above 2000 nM. Further, the IC50 is 980 nM under setting [16], 980 nM under setting [17] and above 2000 nM under setting [18].

In the case of `CC(=O)c1c([S+]([O-])Cc2cccc(I)c2)[nH]c2c(Br)ccc(Cl)c2c1=O` (stereo not drawn) [Compound 48, 3-acetyl-8-bromo-5-chloro-2-((3-iodobenzyl)sulfinyl)quinolin-4(1H)-one], the IC50 by setting is: under setting [1], above 2000 nM; under setting [2], above 2000 nM; under setting [3], above 10000 nM; under setting [4], above 2000 nM; under setting [5], above 10000 nM; under setting [6], above 2000 nM. The IC50 is, setting by setting: under setting [7], above 2000 nM; under setting [8], above 2000 nM; under setting [9], above 2000 nM.

`CC(=O)c1c(S/C=C\C(=O)O)[nH]c2c(Br)ccc(Cl)c2c1=O` [Compound 67, (Z)-3-((3-acetyl-8-bromo-5-chloro-4-oxo-1,4-dihydroquinolin-2-yl)thio)acrylic acid]: the IC50 under setting [1] was above 2000 nM; the IC50 under setting [2] is above 2000 nM; the IC50 under setting [3] was above 10000 nM; the IC50 under setting [4] was above 2000 nM; the IC50 under setting [5] is above 10000 nM; the IC50 under setting [6] is above 2000 nM. The IC50 was above 2000 nM under setting [7], above 2000 nM under setting [8] and above 2000 nM under setting [9].

As to `CC(=O)c1c([S+]([O-])Cc2ccc(N)nc2)[nH]c2c(Br)ccc(Cl)c2c1=O` (stereo not drawn) [Compound 100, 3-acetyl-2-(((6-aminopyridin-3-yl)methyl)sulfinyl)-8-bromo-5-chloroquinolin-4(1H)-one], the IC50 is above 2000 nM under setting [10]; above 10000 nM under setting [11]; above 2000 nM under setting [12]; above 10000 nM under setting [13]; above 2000 nM under setting [14]; above 2000 nM under setting [15]. Also, the IC50 was above 2000 nM under setting [16], above 2000 nM under setting [17] and above 2000 nM under setting [18].

On to `COc1ccccc1Sc1[nH]c2c(Br)ccc(Cl)c2c(=O)c1C(C)=O` [Compound 14, 3-acetyl-8-bromo-5-chloro-2-((2-methoxyphenyl)thio)quinolin-4(1H)-one], for which the IC50 is above 2000 nM under setting [1]; above 2000 nM under setting [2]; above 10000 nM under setting [3]; above 2000 nM under setting [4]; above 10000 nM under setting [5]; above 2000 nM under setting [6]. Moreover, the IC50 by setting is: under setting [7], above 2000 nM; under setting [8], above 2000 nM; under setting [9], above 2000 nM.

In the case of `CSc1c(C(C)=O)c(=O)c2cc(F)ccc2n1C` [Compound 7, 3-acetyl-6-fluoro-1-methyl-2-(methylthio)quinolin-4(1H)-one], the IC50 is, setting by setting: under setting [1], above 2000 nM; under setting [2], above 2000 nM; under setting [3], above 10000 nM; under setting [4], above 2000 nM; under setting [5], above 10000 nM; under setting [6], above 2000 nM. Further, the IC50 by setting is: under setting [7], above 2000 nM; under setting [8], above 2000 nM; under setting [9], above 2000 nM.

Take `CC(=O)c1c(S(C)(=O)=O)n(S(=O)(=O)c2ccc(C(C)(C)C)cc2)c2c(Br)ccc(Cl)c2c1=O` [Compound 41, 3-acetyl-8-bromo-1-((4-(tert-butyl)phenyl)sulfonyl)-5-chloro-2-(methylsulfonyl)quinolin-4(1H)-one]: the IC50 was above 2000 nM under setting [1]; above 2000 nM under setting [2]; above 10000 nM under setting [3]; above 2000 nM under setting [4]; above 10000 nM under setting [5]; above 2000 nM under setting [6]. In addition, the IC50 under setting [7] was above 2000 nM, the IC50 under setting [8] was above 2000 nM and the IC50 under setting [9] was above 2000 nM.

Turning to `CSc1[nH]c2c(Br)ccc(Cl)c2c(=O)c1C(C)=O` [Compound 2, 3-acetyl-8-bromo-5-chloro-2-(methylthio)quinolin-4(1H)-one], the IC50 by setting is: under setting [1], above 2000 nM; under setting [2], above 2000 nM; under setting [3], above 10000 nM; under setting [4], above 2000 nM; under setting [5], above 10000 nM; under setting [6], above 2000 nM. Besides, the IC50 was above 2000 nM under setting [7], above 2000 nM under setting [8] and above 2000 nM under setting [9].

Consider `CC(=O)c1c(S(=O)(=O)Cc2ccccc2)nc2c(Br)ccc(Cl)c2c1O` [Compound 54, 1-(2-(benzylsulfonyl)-8-bromo-5-chloro-4-hydroxyquinolin-3-yl)ethan-1-one], for which the IC50 under setting [1] was above 2000 nM; the IC50 under setting [2] is above 2000 nM; the IC50 under setting [3] is above 10000 nM; the IC50 under setting [4] was above 2000 nM; the IC50 under setting [5] is above 10000 nM; the IC50 under setting [6] was above 2000 nM. Further, the IC50 is above 2000 nM under setting [7], above 2000 nM under setting [8] and above 2000 nM under setting [9].
